Broadly, the half-life is how long it takes for the measured level to halve.

This is an account of results in patent US4670418A, “Method of using somatostatin as an analgesic or an anesthetic” (CuraMED Pharma GmbH, priority 1984, dated 1987).

Series [1] can be described thus: penetration of the dura into the liquor upon peridural application. Format: in vivo.
Series [2] deals with Cancer patients suffering from intolerable pain. Nature of the series: intraspinal and intraventricular injection and infusion in cancer patients with intolerable pain. Type of series: in vivo. The following applies: humans, intraspinal or intraventricular route. On the procedure:
Cancer patients suffering from intolerable pain in the final stage of post-operative pain were given 250 μg of somatostatin as an injection and thereafter 10 to 50 μg/hour of somatostatin as an infusion, in part via the intraspinal route and in part via the intraventricular route.

Series [3] can be described thus: intradural or intraspinal injections or infusions, anesthetic effect. Type of series: in vivo.
The next series concerns dogs. Nature of the series: investigation with dogs, analgesia test according to Cohen (heated plate). Type of series: in vivo.
The subject of a further series is humans. Nature of the series: preliminary experiments with humans, peridural application. Format: in vivo.
The next series deals with rats. The following applies: intracerebroventricular infusion; cited from earlier work.
For series [4] the following is noted: in vivo; cited from earlier work.

As to `C[C@H](N)C(=O)NCC(=O)N[C@H]1CSSC[C@@H](C(=O)O)NC(=O)[C@H](CO)NC(=O)[C@H]([C@@H](C)O)NC(=O)[C@H](Cc2ccccc2)NC(=O)[C@H]([C@@H](C)O)NC(=O)[C@H](CCCCN)NC(=O)[C@H](Cc2c[nH]c3ccccc23)NC(=O)[C@H](Cc2ccccc2)NC(=O)[C@H](Cc2ccccc2)NC(=O)[C@H](CC(N)=O)NC(=O)[C@H](CCCCN)NC1=O` [somatostatin], in series [1], the “penetration of the dura” value was “capable of rapidly (and to a high degree) penetrating the dura”. In addition, in series [2] (250 μg injection then 10 to 50 μg/hour infusion), the analgesia entry was “marked analgesia, comparable to that of morphine”. Besides, the “tolerability of the infusions” value in series [2] (10 to 50 μg/hour infusion) is reported as “tolerated without any occurring side-effects for a period of over two weeks”. Moreover, in series [3], the anesthetic effects result was “have anesthetic effects”. Further, the signs of pain entry in the series on dogs (dog having a large decubitus) is “showed no signs of pain”. In the series with dogs (dogs), the “duration of analgesic activity” value is on record as “maintained for several weeks”; the sedation and behavior entry was “had not been put under sedation and showed a balanced behavior”; the side effects entry is “No side effects were apparent”. The “period for which heated plate was tolerated” value in the series with dogs (dogs, all animals, heated plate of 60° C., analgesia test according to Cohen) turned out to be 5 s. Further, the analgesic effectiveness entry with humans (peridural application of 125 μg) is “analgesically effective”. Moreover, the analgesic effectiveness entry in the series with humans (peridural application of 250 μg) was “analgesically effective”. The analgesic effect result in the series on rats is reported as “a short-term analgesic effect was found”. Also, the half-life in series [4] was 2 to 4 min.
